The text below walks through data of article PMC12797228 (ACS Infectious Diseases, 2025).

Data set [1] addresses T1, wild-type B. anthracis gyrase (Bacillus anthracis, UniProt A0A6H3A7B1+Q9X3Y6). The data set is described as follows: biochemical. As to conditions: IC50, inhibition of DNA supercoiling.
In data set [2] the test system is B. anthracis (Ames strain). Also noted: species or system BALB/c mice. As to conditions: mouse, in vivo.
Data set [3] concerns the target T2, wild-type B. anthracis topoisomerase IV (Bacillus anthracis, UniProt A0A6H3AG07+A0AAC8SCF4). In words: biochemical. As to conditions: IC50, inhibition of DNA decatenation.
The test system of data set [4] is 30-strain panel of B. anthracis. The data set is described as follows: microbe, parasite or virus in culture. Format: cell-based, Bacillus anthracis. As to conditions: for MIC50 / MIC90: Bacillus anthracis.
The next data set deals with B. anthracis. The following applies: rabbit, in vivo; cited from earlier work.
In data set [5] the target is T1, wild-type B. anthracis gyrase. The data set is described as follows: biochemical. As to conditions: EC50 (concentration that induces 50% maximal DNA cleavage).
For data set [6] the following is noted: mouse, in vivo, po, 100 mg/kg.
The next data set is described as follows: in vitro. The following applies: plasma.
A further data set in a line: in vivo. As to conditions: female, BALB/c, mouse.
For data set [7] the following is noted: female, BALB/c, mouse, in vivo.
The target of data set [8] is T2, wild-type B. anthracis topoisomerase IV. The data set is described as follows: biochemical. The following applies: EC50, DNA cleavage.

Converted amounts (≈) assume the structure as drawn. “And” between values parts separate entries of the source, which are not always exact repeats. Equal values may be shown once. Read-outs that look alike come from different tables or passages of the source.

T2 sequence (A0A6H3AG07 1-807): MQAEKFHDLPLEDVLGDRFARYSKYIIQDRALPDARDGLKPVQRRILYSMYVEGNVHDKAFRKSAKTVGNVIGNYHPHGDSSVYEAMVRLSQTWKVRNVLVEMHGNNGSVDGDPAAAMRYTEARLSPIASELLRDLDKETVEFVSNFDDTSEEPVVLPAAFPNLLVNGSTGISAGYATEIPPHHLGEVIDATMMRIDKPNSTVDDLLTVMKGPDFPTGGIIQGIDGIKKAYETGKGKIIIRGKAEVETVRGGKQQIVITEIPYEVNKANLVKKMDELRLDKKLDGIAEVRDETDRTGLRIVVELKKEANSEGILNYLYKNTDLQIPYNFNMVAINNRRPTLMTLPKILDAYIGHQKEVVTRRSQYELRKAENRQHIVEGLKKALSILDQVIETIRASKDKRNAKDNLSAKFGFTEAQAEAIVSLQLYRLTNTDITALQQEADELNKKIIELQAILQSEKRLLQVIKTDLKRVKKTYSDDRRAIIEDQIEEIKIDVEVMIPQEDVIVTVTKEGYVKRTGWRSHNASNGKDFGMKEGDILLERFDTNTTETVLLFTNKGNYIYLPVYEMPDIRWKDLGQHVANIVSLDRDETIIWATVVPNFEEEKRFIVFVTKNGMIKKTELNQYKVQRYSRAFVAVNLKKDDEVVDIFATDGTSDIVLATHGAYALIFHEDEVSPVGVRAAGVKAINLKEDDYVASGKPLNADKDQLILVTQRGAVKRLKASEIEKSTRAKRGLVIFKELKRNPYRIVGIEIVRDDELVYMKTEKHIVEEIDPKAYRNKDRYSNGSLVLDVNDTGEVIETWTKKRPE
T2 sequence (A0AAC8SCF4 1-654): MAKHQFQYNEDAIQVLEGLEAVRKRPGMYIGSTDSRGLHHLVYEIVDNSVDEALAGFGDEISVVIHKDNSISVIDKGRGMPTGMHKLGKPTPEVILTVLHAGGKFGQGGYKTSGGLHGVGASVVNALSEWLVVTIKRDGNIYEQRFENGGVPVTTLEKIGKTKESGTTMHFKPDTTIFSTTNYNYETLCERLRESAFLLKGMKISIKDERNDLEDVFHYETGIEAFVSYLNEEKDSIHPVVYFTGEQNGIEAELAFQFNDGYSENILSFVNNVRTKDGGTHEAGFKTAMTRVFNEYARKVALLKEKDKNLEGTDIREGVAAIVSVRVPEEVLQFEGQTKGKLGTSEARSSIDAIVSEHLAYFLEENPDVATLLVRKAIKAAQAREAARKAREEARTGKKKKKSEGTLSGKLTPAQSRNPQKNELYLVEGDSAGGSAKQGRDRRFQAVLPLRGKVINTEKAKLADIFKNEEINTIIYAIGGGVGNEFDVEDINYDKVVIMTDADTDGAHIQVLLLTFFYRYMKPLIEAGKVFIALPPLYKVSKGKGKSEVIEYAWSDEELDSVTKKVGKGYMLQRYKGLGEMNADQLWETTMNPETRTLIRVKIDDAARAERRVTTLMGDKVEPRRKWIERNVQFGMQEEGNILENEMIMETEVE
T1 sequence (A0A6H3A7B1 1-823): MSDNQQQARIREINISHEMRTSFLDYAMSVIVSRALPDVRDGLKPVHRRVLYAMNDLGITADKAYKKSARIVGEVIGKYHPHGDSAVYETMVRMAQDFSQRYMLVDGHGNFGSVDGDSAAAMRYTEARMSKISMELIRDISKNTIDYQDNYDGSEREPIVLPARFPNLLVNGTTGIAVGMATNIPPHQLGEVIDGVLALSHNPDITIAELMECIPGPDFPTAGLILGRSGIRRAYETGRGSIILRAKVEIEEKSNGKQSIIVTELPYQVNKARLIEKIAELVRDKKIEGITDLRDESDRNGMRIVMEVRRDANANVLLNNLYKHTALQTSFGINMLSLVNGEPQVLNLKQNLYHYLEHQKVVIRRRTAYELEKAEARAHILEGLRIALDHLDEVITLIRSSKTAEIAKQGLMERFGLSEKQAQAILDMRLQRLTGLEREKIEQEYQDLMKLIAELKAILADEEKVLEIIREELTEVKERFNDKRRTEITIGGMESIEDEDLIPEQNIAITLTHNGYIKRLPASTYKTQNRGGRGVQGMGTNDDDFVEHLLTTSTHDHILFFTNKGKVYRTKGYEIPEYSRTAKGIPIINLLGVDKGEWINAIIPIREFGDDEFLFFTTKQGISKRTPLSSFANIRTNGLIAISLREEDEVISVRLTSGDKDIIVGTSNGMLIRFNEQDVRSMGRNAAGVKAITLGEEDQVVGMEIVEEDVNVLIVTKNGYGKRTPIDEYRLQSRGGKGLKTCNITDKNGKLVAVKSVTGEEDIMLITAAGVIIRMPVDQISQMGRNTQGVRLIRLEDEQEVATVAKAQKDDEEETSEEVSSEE
T1 sequence (Q9X3Y6 whole entry): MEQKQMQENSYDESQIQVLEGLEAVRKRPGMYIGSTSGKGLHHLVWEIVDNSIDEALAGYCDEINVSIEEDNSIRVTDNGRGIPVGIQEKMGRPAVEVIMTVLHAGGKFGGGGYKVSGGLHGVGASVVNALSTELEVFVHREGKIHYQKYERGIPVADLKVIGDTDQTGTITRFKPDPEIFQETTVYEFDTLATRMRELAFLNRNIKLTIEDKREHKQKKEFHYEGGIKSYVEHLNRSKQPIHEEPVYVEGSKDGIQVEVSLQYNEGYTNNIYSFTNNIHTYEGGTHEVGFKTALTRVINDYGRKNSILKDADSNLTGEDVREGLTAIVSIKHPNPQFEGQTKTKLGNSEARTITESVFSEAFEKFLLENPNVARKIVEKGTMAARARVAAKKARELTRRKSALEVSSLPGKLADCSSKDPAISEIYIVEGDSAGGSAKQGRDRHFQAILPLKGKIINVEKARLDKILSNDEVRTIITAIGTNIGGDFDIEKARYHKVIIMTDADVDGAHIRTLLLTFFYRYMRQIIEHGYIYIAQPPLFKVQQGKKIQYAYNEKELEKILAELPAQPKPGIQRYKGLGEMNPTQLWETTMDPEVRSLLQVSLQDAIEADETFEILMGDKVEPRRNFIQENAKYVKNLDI

The term IC50 denotes the concentration that gives 50% inhibition. Turning to `O=C(O)c1cn(C2CC2)c2cc(N3CCNCC3)c(F)cc2c1=O` [Ciprofloxacin, ciprofloxacin], the IC50 in data set [1] was ~118000 nM and 118000 nM; in [3], ~178000 nM and 178000 nM. The “Mice that survived to study termination on day 30 (of 10)” value in data set [2] is 10.
One may read the EC50 as the concentration giving half of the maximal effect. A higher EC50 goes with a need for much substance. On to `O=c1ccc2ncc(=O)n3c2n1C[C@H]3CN1CCC(NCc2cc3c(cn2)OCCC3)CC1` [Gepotidacin, gepotidacin, reference compound], for which the IC50 in [1] is ~23200 nM and 23200 nM. Also, in [3], the IC50 is ~200 nM and 200 nM. Also, in data set [4], the “Range of MIC values” is 0.12 to 8 µg/mL, the MIC50 is 0.5 µg/mL (≈ 1.11 µM) and the MIC90 stood at 0.5 µg/mL (≈ 1.11 µM). In addition, in the data set with B. anthracis, the “Rabbits that survived for at least 30 days” value is reported as “Ten out of 11”. For the same compound, in data set [5], the EC50 was 800 nM and ~800 nM.
A word on the fraction unbound: it is the share of the substance not bound to proteins or other matrix. Broadly, the half-life is the time needed for the level to fall by half in the phase considered. A lower half-life goes with rapid decline. The bioavailability is dose-corrected exposure relative to a reference, in per cent. High values mean much systemic uptake, low ones little systemic uptake. One may read the AUC(0-inf) as total exposure, with the tail of the curve extrapolated. Lower therefore signals low exposure. One may read the AUC(0-t) as the area under the concentration-time curve up to a stated or last time point. High values mean more exposure, low ones less exposure. What is called Cmax is the peak of the concentration-time curve. As a reminder, the Tmax is the time at which the peak concentration occurs. With `COc1ccc2ncc(F)c(C[C@H](O)[C@H]3OC[C@H](NCc4cnc5c(n4)NC(=O)CO5)CO3)c2n1` [OSUAB-0284, 6-(((trans-2-((S)-2-(3-fluoro-6-methoxy-1,5-naphthyridin-4-yl)-1-hydroxyethyl)-1,3-dioxan-5-yl)amino)methyl)-2H-pyrazino[2,3-b][1,4]oxazin-3(4H)-one], the “Adverse events or cage-side observations” value in data set [6] is given as “No adverse events or cage-side observations were noted”. Also, in the data set “in vitro”, the fraction unbound was 0.31. The IC50 in data set [1] was ~6300 nM and 6300 nM. In “in vivo”, this compound gave a Kp of 0.36 to 0.53 and a half-life of 2.6 h. Also, the bioavailability in “in vivo” (10 mg/kg) was 80.6%. In “in vivo” (iv, 10 mg/kg), the AUC(0-inf) is 11400 ng·h/mL, the AUC(0-t) turned out to be 10800 ng·h/mL, the concentration peaked (Cmax) at 17600 ng/mL and the Tmax is 0.0833 h. This compound also had a half-life in the data set “in vivo” (iv, 10 mg/kg) of 2.6 h. In the data set “in vivo” (po, 10 mg/kg), the AUC(0-inf) stood at 9160 ng·h/mL, the AUC(0-t) was determined as 8470 ng·h/mL, the highest level (Cmax) was 6280 ng/mL and the Tmax was 0.25 h. The half-life in “in vivo” (po, 10 mg/kg) was 2.6 h. Besides, in “in vivo” (po, 50 mg/kg), the AUC(0-inf) amounted to 70200 ng·h/mL, the AUC(0-t) stood at 63000 ng·h/mL, the Cmax turned out to be 50300 ng/mL and the Tmax was 0.25 h. The half-life in the data set “in vivo” (po, 50 mg/kg) was 2.6 h. Besides, the “dose-corrected exposure, higher vs lower dose group” value in data set [7] was determined as 1.5 fold. In data set [7] (iv, 10 mg/kg), the “Lung AUC0-last” value is listed as 4,830 ng*h/mL and the “Lung AUCinf” value is listed as 5,033 ng*h/mL. For the same compound, in [7] (po, 10 mg/kg), the “Lung AUC0-last” value was 3,314 ng*h/mL and the “Lung AUCinf” value is given as 3,615 ng*h/mL. Further, in [7] (po, 50 mg/kg), the “Lung AUC0-last” value is recorded as 37,227 ng*h/mL and the “Lung AUCinf” value is listed as 44,292 ng*h/mL. In [2], the “Lung total bacterial burden and spore counts compared with the ciprofloxacin group” value is listed as “No significant differences”; the Survival is 100% and 90% and 90–100%. In [3], the IC50 is ~100 nM and 100 nM. Also, the EC50 in data set [8] is 40 nM and ~40 nM. Further, in data set [4], the “Range of MIC values” is at most 0.03 to 4 µg/mL, the MIC50 stood at 0.06 µg/mL (≈ 0.123 µM) and the MIC90 amounted to 0.25 µg/mL (≈ 0.514 µM). In addition, the EC50 in data set [5] was 700 nM and ~700 nM.
